Data reported in the supplement of paper PMC11451515.

Test system: P12-Ichikawa
Assay: cell viability relative to DMSO control; higher = less cytotoxic
Conditions: 48 h
Summary of the method: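 Viability values are per-plate percentages of DMSO wells, with background from cell-free wells. Library compounds in DMSO were pin-dosed, in an 11-point threefold series from 47 μM to 0.79 nM, onto NOMO1 or SEM (500 cells/well) or P12-Ichikawa (1000 cells/well) leukemia cells in 1536-well plates (5 μl). Those cells had been adapted for at least four passages in each medium, and CellTiter-Glo One luminescence was read after 48 h at 37°C.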

[1] = HPLM + 10% dialyzed FBS, 0.000781 µM
[2] = HPLM + 10% dialyzed FBS, 0.00234 µM
[3] = HPLM + 10% dialyzed FBS, 0.00702 µM
[4] = HPLM + 10% dialyzed FBS, 0.0211 µM
[5] = HPLM + 10% dialyzed FBS, 0.0632 µM
[6] = HPLM + 10% dialyzed FBS, 0.19 µM
[7] = HPLM + 10% dialyzed FBS, 0.569 µM
[8] = HPLM + 10% dialyzed FBS, 1.71 µM
[9] = HPLM + 10% dialyzed FBS, 5.12 µM
[10] = HPLM + 10% dialyzed FBS, 15.4 µM
[11] = HPLM + 10% dialyzed FBS, 46.1 µM
[12] = RPMI 5 mM glucose + 10% FBS, 0.000781 µM
[13] = RPMI 5 mM glucose + 10% FBS, 0.00234 µM
[14] = RPMI 5 mM glucose + 10% FBS, 0.00702 µM
[15] = RPMI 5 mM glucose + 10% FBS, 0.0211 µM
[16] = RPMI 5 mM glucose + 10% FBS, 0.0632 µM
[17] = RPMI 5 mM glucose + 10% FBS, 0.19 µM
[18] = RPMI 5 mM glucose + 10% FBS, 0.569 µM
[19] = RPMI 5 mM glucose + 10% FBS, 1.71 µM
[20] = RPMI 5 mM glucose + 10% FBS, 5.12 µM
[21] = RPMI 5 mM glucose + 10% FBS, 15.4 µM
[22] = RPMI 5 mM glucose + 10% FBS, 46.1 µM
[23] = RPMI 5 mM glucose + 10% dialyzed FBS, 0.000781 µM
[24] = RPMI 5 mM glucose + 10% dialyzed FBS, 0.00234 µM
[25] = RPMI 5 mM glucose + 10% dialyzed FBS, 0.00702 µM
[26] = RPMI 5 mM glucose + 10% dialyzed FBS, 0.0211 µM
[27] = RPMI 5 mM glucose + 10% dialyzed FBS, 0.0632 µM
[28] = RPMI 5 mM glucose + 10% dialyzed FBS, 0.19 µM
[29] = RPMI 5 mM glucose + 10% dialyzed FBS, 0.569 µM
[30] = RPMI 5 mM glucose + 10% dialyzed FBS, 1.71 µM
[31] = RPMI 5 mM glucose + 10% dialyzed FBS, 5.12 µM
[32] = RPMI 5 mM glucose + 10% dialyzed FBS, 15.4 µM
[33] = RPMI 5 mM glucose + 10% dialyzed FBS, 46.1 µM

`NC1=NC(=O)N2CC12` (configuration not stated) was tested, and the cell viability [1] was 91%, the cell viability [2] was 103% and the cell viability [3] was 101%. It also gave a cell viability [4] of 107%, a cell viability [5] of 103% and a cell viability [6] of 97%. For the same compound, the cell viability [7] was 103%, the cell viability [8] was 99.7% and the cell viability [9] was 83.1%. The cell viability [10] was 3.88%, the cell viability [11] was 2.17% and the cell viability [12] was 92.5%. For the same compound, the cell viability [13] was 91.2%, the cell viability [14] was 96.2% and the cell viability [15] was 102%. It also gave a cell viability [16] of 106%, a cell viability [17] of 97.4% and a cell viability [18] of 104%. For the same compound, the cell viability [19] was 67.8%, the cell viability [20] was 59% and the cell viability [21] was 2.82%. For the same compound, the cell viability [22] was 0.916%, the cell viability [23] was 85.3% and the cell viability [24] was 94.6%. It also gave a cell viability [25] of 92.1%, a cell viability [26] of 90.9% and a cell viability [27] of 87.4%. For the same compound, the cell viability [28] was 88.5%, the cell viability [29] was 95.6% and the cell viability [30] was 73.5%. The cell viability [31] was 59.9%, the cell viability [32] was 6.25% and the cell viability [33] was 2.73%.
`c1cc(-c2cnn3cc(-c4ccc(OCCN5CCCCC5)cc4)cnc23)ccn1` showed a cell viability [1] of 90.3%, a cell viability [2] of 91.1% and a cell viability [3] of 93.8%. For the same compound, the cell viability [4] was 91.8%, the cell viability [5] was 97% and the cell viability [6] was 93.7%. It also gave a cell viability [7] of 91.7%, a cell viability [8] of 91.4% and a cell viability [9] of 89.6%. For the same compound, the cell viability [10] was 85.6%, the cell viability [11] was 2.9% and the cell viability [12] was 83.8%. The cell viability [13] was 81.9%, the cell viability [14] was 96.7% and the cell viability [15] was 86.9%. For the same compound, the cell viability [16] was 87.5%, the cell viability [17] was 79% and the cell viability [18] was 76%. The cell viability [19] was 84.2%, the cell viability [20] was 85.9% and the cell viability [21] was 83.2%. The cell viability [22] was 50.5%, the cell viability [23] was 89.2% and the cell viability [24] was 86.8%. The cell viability [25] was 84.1%, the cell viability [26] was 88.5% and the cell viability [27] was 86.8%. For the same compound, the cell viability [28] was 85.4%, the cell viability [29] was 78.8% and the cell viability [30] was 83.7%. For the same compound, the cell viability [31] was 78.2%, the cell viability [32] was 88% and the cell viability [33] was 85.7%.
With `CCCCCCNC(=O)N1\C=C(F)/C(=O)NC1=O` the cell viability [1] was 122%, the cell viability [2] was 124% and the cell viability [3] was 123%. For the same compound, the cell viability [4] was 127%, the cell viability [5] was 121% and the cell viability [6] was 129%. It also gave a cell viability [7] of 126%, a cell viability [8] of 124% and a cell viability [9] of 113%. For the same compound, the cell viability [10] was 107%, the cell viability [11] was 89.3% and the cell viability [23] was 108%. For the same compound, the cell viability [24] was 118%, the cell viability [25] was 122% and the cell viability [26] was 122%. It also gave a cell viability [27] of 127%, a cell viability [28] of 117% and a cell viability [29] of 129%. The cell viability [30] was 121%, the cell viability [31] was 116% and the cell viability [32] was 91.8%. It also gave a cell viability [33] of 81.8%.
With `NCCCC(N)(C(=O)O)C(F)F` (configuration not stated) the cell viability [1] was 116%, the cell viability [2] was 116% and the cell viability [3] was 113%. It also gave a cell viability [4] of 117%, a cell viability [5] of 118% and a cell viability [6] of 110%. For the same compound, the cell viability [7] was 113%, the cell viability [8] was 112% and the cell viability [9] was 108%. It also gave a cell viability [10] of 101%, a cell viability [11] of 98.4% and a cell viability [12] of 123%. It also gave a cell viability [13] of 125%, a cell viability [14] of 123% and a cell viability [15] of 121%. The cell viability [16] was 114%, the cell viability [17] was 122% and the cell viability [18] was 113%. For the same compound, the cell viability [19] was 113%, the cell viability [20] was 115% and the cell viability [21] was 107%. The cell viability [22] was 109%, the cell viability [23] was 114% and the cell viability [24] was 122%. The cell viability [25] was 113%, the cell viability [26] was 118% and the cell viability [27] was 113%. For the same compound, the cell viability [28] was 109%, the cell viability [29] was 110% and the cell viability [30] was 105%. It also gave a cell viability [31] of 105%, a cell viability [32] of 105% and a cell viability [33] of 100%.
With `C[S+](=O)([O-])Oc1ccc2c(NC(N)=O)c(C(=O)c3ccc(Cl)cc3Cl)oc2c1` the cell viability [1] was 113%, the cell viability [2] was 120% and the cell viability [3] was 122%. The cell viability [4] was 116%, the cell viability [5] was 120% and the cell viability [6] was 113%. For the same compound, the cell viability [7] was 122%, the cell viability [8] was 119% and the cell viability [9] was 108%. For the same compound, the cell viability [10] was 99.9%, the cell viability [11] was 66.5% and the cell viability [12] was 112%. The cell viability [13] was 109%, the cell viability [14] was 121% and the cell viability [15] was 117%. The cell viability [16] was 130%, the cell viability [17] was 116% and the cell viability [18] was 123%. It also gave a cell viability [19] of 125%, a cell viability [20] of 129% and a cell viability [21] of 109%. The cell viability [22] was 73.3%, the cell viability [23] was 116% and the cell viability [24] was 118%. It also gave a cell viability [25] of 112%, a cell viability [26] of 110% and a cell viability [27] of 117%. The cell viability [28] was 122%, the cell viability [29] was 122% and the cell viability [30] was 126%. It also gave a cell viability [31] of 118%, a cell viability [32] of 105% and a cell viability [33] of 91.5%.
`CN(C)c1nc(Cc2ccc(NC(=O)c3ccc(C(F)(F)F)cc3)cc2)nc(N(C)C)c1CC(=O)O` was tested, and the cell viability [1] was 106%, the cell viability [2] was 100% and the cell viability [3] was 107%. It also gave a cell viability [4] of 104%, a cell viability [5] of 105% and a cell viability [6] of 103%. The cell viability [7] was 99.5%, the cell viability [8] was 102% and the cell viability [9] was 103%. For the same compound, the cell viability [10] was 98.2%, the cell viability [11] was 90.3% and the cell viability [12] was 106%. For the same compound, the cell viability [13] was 109%, the cell viability [14] was 99.5% and the cell viability [15] was 105%. The cell viability [16] was 109%, the cell viability [17] was 103% and the cell viability [18] was 103%. The cell viability [19] was 108%, the cell viability [20] was 100% and the cell viability [21] was 103%. The cell viability [22] was 98.5%, the cell viability [23] was 95.7% and the cell viability [24] was 96.7%. It also gave a cell viability [25] of 99.6%, a cell viability [26] of 105% and a cell viability [27] of 94.7%. It also gave a cell viability [28] of 96.9%, a cell viability [29] of 99.3% and a cell viability [30] of 96.8%. It also gave a cell viability [31] of 95.1%, a cell viability [32] of 93.8% and a cell viability [33] of 85.2%.
Compound `Cc1nc(-c2ccc(OCC(C)C)c(C#N)c2)sc1C(=O)O` has a cell viability [1] of 114%, a cell viability [2] of 124% and a cell viability [3] of 122%. For the same compound, the cell viability [4] was 117%, the cell viability [5] was 119% and the cell viability [6] was 117%. It also gave a cell viability [7] of 112%, a cell viability [8] of 116% and a cell viability [9] of 119%. For the same compound, the cell viability [10] was 106% and the cell viability [11] was 92.7%.
Work on `CCOC(=O)c1c(C)n(C)c2ccc(O)cc12` yielded a cell viability [1] of 122%, a cell viability [2] of 124% and a cell viability [3] of 124%. For the same compound, the cell viability [4] was 123%, the cell viability [5] was 128% and the cell viability [6] was 122%. For the same compound, the cell viability [7] was 127%, the cell viability [8] was 123% and the cell viability [9] was 107%. The cell viability [10] was 109% and the cell viability [11] was 90.3%.
`CN1C(=O)/C(=C(NC2=CC=C(I)C=C2F)\C3=C1\N=C/N(C[C@@H](O)CO)C3=O)F` showed a cell viability [1] of 86.5%, a cell viability [2] of 82.2% and a cell viability [3] of 87.2%. The cell viability [4] was 89.6%, the cell viability [5] was 81.1% and the cell viability [6] was 82.8%. The cell viability [7] was 75.4%, the cell viability [8] was 80.3% and the cell viability [9] was 74.8%. It also gave a cell viability [10] of 71.3%, a cell viability [11] of 62.9% and a cell viability [12] of 78.2%. For the same compound, the cell viability [13] was 74.9%, the cell viability [14] was 83.6% and the cell viability [15] was 73.8%. For the same compound, the cell viability [16] was 71.6%, the cell viability [17] was 71.3% and the cell viability [18] was 72.1%. It also gave a cell viability [19] of 70.4%, a cell viability [20] of 68% and a cell viability [21] of 68.9%. It also gave a cell viability [22] of 40.5%, a cell viability [23] of 81.1% and a cell viability [24] of 82.2%. For the same compound, the cell viability [25] was 85.6%, the cell viability [26] was 86.7% and the cell viability [27] was 77.7%. For the same compound, the cell viability [28] was 81.9%, the cell viability [29] was 76.2% and the cell viability [30] was 80.1%. For the same compound, the cell viability [31] was 78%, the cell viability [32] was 65.2% and the cell viability [33] was 39.2%.
